The structures appear in SMILES notation. Like-named read-outs stand apart in the source and are kept apart here. Some results are limits rather than exact numbers.

Consider seven compounds from patent US20250154141A1 (University of Florida Research Foundation, Incorporated, priority 2021, published 2025).

The subject of one test is MOLT-4. Kind of test: Cell viability assay (MTS) in MOLT-4 cells. Type of test: cell-based. The conditions noted are these: Homo sapiens, MOLT-4. Here is the method: (§1) Acute lymphoblastic leukemia cells (MOLT-4 and RS4; 11) were incubated with increasing concentrations of Bcl-xL degraders for 48 h. Cell viability was measured by tetrazolium-based MTS assay.
The subject of another test is RS4; 11. Kind of test: Cell viability assay (MTS) in RS4; 11 cells. Type of test: cell-based. Details: Anti-Cancer Activity IC50 (48 hr) RS4; 11: scale not given here. The conditions noted are these: for IC50: Homo sapiens, RS4-11. Here is the method: as §1
Where [1] appears, read: Table 2, 48 hr, MTS, read-out: Anti-Cancer Activity IC50 (48 hr) MOLT-4.
Setting [2] is: Table 2, 48 hr, MTS, read-out: Anti-Cancer Activity IC50 (48 hr) RS4, 11.

Turning to `Cc1ncsc1-c1ccc([C@H](C)NC(=O)[C@@H]2C[C@@H](O)CN2C(=O)[C@@H](NC(=O)CCCCCCC(=O)N2CCN(CC3(C)CCC(c4ccc(Cl)cc4)=C(CN4CCN(c5ccc(C(=O)NS(=O)(=O)c6ccc(N[C@H](CCN(C)C7CC7)CSc7ccccc7)c([N+](=O)[O-])c6)cc5)CC4)C3)CC2)C(C)(C)C)cc1` (stereo partly drawn) [Compound 35, (2S,4R)-1-((2S)-2-(8-(4-((4′-chloro-6-((4-(4-(((4-(((R)-4-(cyclopropyl(methyl)amino)-1-(phenylthio)butan-2-yl)amino)-3-nitrophenyl)sulfonyl)carbamoyl)phenyl)piperazin-1-yl)methyl)-4-methyl-2,3,4,5-tetrahydro-[1,1′-biphenyl]-4-yl)methyl)piperazin-1-yl)-8-oxooctanamido)-3,3-dimethylbutanoyl)-4-hydroxy-N—((S)-1-(4-(4-methylthiazol-5-yl)phenyl)ethyl)pyrrolidine-2-carboxamide], the IC50 (in general, the concentration that inhibits the measured activity by half) in the test with MOLT-4 (setting [1]) is 20 to 100 nM. In addition, the “Anti-Cancer Activity IC50 (48 hr) RS4; 11” value with RS4; 11 (Table 2, 48 hr, MTS) was “+ ++”.
Take `Cc1ncsc1-c1ccc([C@H](C)NC(=O)[C@@H]2C[C@@H](O)CN2C(=O)[C@@H](NC(=O)CCCCCCC(=O)N2CCN(CC3(C)CCC(c4ccc(Cl)cc4)=C(CN4CCN(c5ccc(C(=O)NS(=O)(=O)c6ccc(N[C@H](CCN(C)C7CCC7)CSc7ccccc7)c([N+](=O)[O-])c6)cc5)CC4)C3)CC2)C(C)(C)C)cc1` (stereo partly drawn) [Compound 36, (2S,4R)-1-((2S)-2-(8-(4-((4′-chloro-6-((4-(4-(((4-(((R)-4-(cyclobutyl(methyl)amino)-1-(phenylthio)butan-2-yl)amino)-3-nitrophenyl)sulfonyl)carbamoyl)phenyl)piperazin-1-yl)methyl)-4-methyl-2,3,4,5-tetrahydro-[1,1′-biphenyl]-4-yl)methyl)piperazin-1-yl)-8-oxooctanamido)-3,3-dimethylbutanoyl)-4-hydroxy-N—((S)-1-(4-(4-methylthiazol-5-yl)phenyl)ethyl)pyrrolidine-2-carboxamide]: the IC50 with MOLT-4 (setting [1]) is 20 to 100 nM. Further, the “Anti-Cancer Activity IC50 (48 hr) RS4; 11” value in the test on RS4; 11 (Table 2, 48 hr, MTS) is given as “++ ++”.
As for `Cc1ncsc1-c1ccc([C@H](C)NC(=O)[C@@H]2C[C@@H](O)CN2C(=O)[C@@H](NC(=O)CCCCCCC(=O)N2CCN(C[C@]3(C)CCC(c4ccc(Cl)cc4)=C(CN4CCN(c5ccc(C(=O)NS(=O)(=O)c6ccc(N[C@H](CCN7CCCCC7)CSc7ccccc7)c([N+](=O)[O-])c6)cc5)CC4)C3)CC2)C(C)(C)C)cc1` [Compound 40, (2S,4R)-1-((S)-2-(8-(4-(((R)-4′-chloro-4-methyl-6-((4-(4-(((3-nitro-4-(((R)-1-(phenylthio)-4-(piperidin-1-yl)butan-2-yl)amino)phenyl)sulfonyl)carbamoyl)phenyl)piperazin-1-yl)methyl)-2,3,4,5-tetrahydro-[1,1′-biphenyl]-4-yl)methyl)piperazin-1-yl)-8-oxooctanamido)-3,3-dimethylbutanoyl)-4-hydroxy-N—((S)-1-(4-(4-methylthiazol-5-yl)phenyl)ethyl)pyrrolidine-2-carboxamide], the IC50 in the test on MOLT-4 (setting [1]) and in the test with RS4; 11 (setting [2]) was below 20 nM throughout.
Consider `Cc1ncsc1-c1ccc([C@H](C)NC(=O)[C@@H]2C[C@@H](O)CN2C(=O)[C@@H](NC(=O)CCCCCCC(=O)N2CCN(C[C@]3(C)CCC(c4ccc(Cl)cc4)=C(CN4CCN(c5ccc(C(=O)NS(=O)(=O)c6ccc(N[C@H](CCN(C)CCO)CSc7ccccc7)c([N+](=O)[O-])c6)cc5)CC4)C3)CC2)C(C)(C)C)cc1` [Compound 42, (2S,4R)-1-((S)-2-(8-(4-(((R)-4′-chloro-6-((4-(4-(((4-(((R)-4-((2-hydroxyethyl)(methyl)amino)-1-(phenylthio)butan-2-yl)amino)-3-nitrophenyl)sulfonyl)carbamoyl)phenyl)piperazin-1-yl)methyl)-4-methyl-2,3,4,5-tetrahydro-[1,1′-biphenyl]-4-yl)methyl)piperazin-1-yl)-8-oxooctanamido)-3,3-dimethylbutanoyl)-4-hydroxy-N—((S)-1-(4-(4-methylthiazol-5-yl)phenyl)ethyl)pyrrolidine-2-carboxamide], for which the IC50 was 20 to 100 nM with MOLT-4 (setting [1]) and below 20 nM in the test on RS4; 11 (setting [2]).
`CCN(CCO)CC[C@H](CSc1ccccc1)Nc1ccc(S(=O)(=O)NC(=O)c2ccc(N3CCN(CC4=C(c5ccc(Cl)cc5)CCC(C)(CN5CCN(C(=O)CCCCCCC(=O)N[C@H](C(=O)N6C[C@H](O)C[C@H]6C(=O)N[C@@H](C)c6ccc(-c7scnc7C)cc6)C(C)(C)C)CC5)C4)CC3)cc2)cc1[N+](=O)[O-]` (stereo partly drawn) [Compound 43, (2S,4R)-1-((2S)-2-(8-(4-((4′-chloro-6-((4-(4-(((4-(((R)-4-(ethyl(2-hydroxyethyl)amino)-1-(phenylthio)butan-2-yl)amino)-3-nitrophenyl)sulfonyl)carbamoyl)phenyl)piperazin-1-yl)methyl)-4-methyl-2,3,4,5-tetrahydro-[1,1′-biphenyl]-4-yl)methyl)piperazin-1-yl)-8-oxooctanamido)-3,3-dimethylbutanoyl)-4-hydroxy-N—((S)-1-(4-(4-methylthiazol-5-yl)phenyl)ethyl)pyrrolidine-2-carboxamide]: the IC50 with MOLT-4 (setting [1]) is 20 to 100 nM; in the test with MOLT-4 (Table 5, 48 h, read-out: MOLT-4 48 h IC50) it was 78.5 nM; in the test on RS4; 11 (setting [2]), below 20 nM; in the test on RS4; 11 (Table 5, 48 h, read-out: RS4 48 h IC50), 7.3 nM.
On to `Cc1ncsc1-c1ccc([C@H](C)NC(=O)[C@@H]2C[C@@H](O)CN2C(=O)[C@@H](NC(=O)CCCCCCC(=O)N2CCN(CC3(C)CCC(c4ccc(Cl)cc4)=C(CN4CCN(c5ccc(C(=O)NS(=O)(=O)c6ccc(N[C@H](CCN(CCO)C7CC7)CSc7ccccc7)c([N+](=O)[O-])c6)cc5)CC4)C3)CC2)C(C)(C)C)cc1` (stereo partly drawn) [Compound 44, (2S,4R)-1-((2S)-2-(8-(4-((4′-chloro-6-((4-(4-(((4-(((R)-4-(cyclopropyl(2-hydroxyethyl)amino)-1-(phenylthio)butan-2-yl)amino)-3-nitrophenyl)sulfonyl)carbamoyl)phenyl)piperazin-1-yl)methyl)-4-methyl-2,3,4,5-tetrahydro-[1,1′-biphenyl]-4-yl)methyl)piperazin-1-yl)-8-oxooctanamido)-3,3-dimethylbutanoyl)-4-hydroxy-N—((S)-1-(4-(4-methylthiazol-5-yl)phenyl)ethyl)pyrrolidine-2-carboxamide], for which the figures for the IC50 in the test with MOLT-4 (setting [1]) and in the test on RS4; 11 (setting [2]) were 100 to 500 nM and 20 to 100 nM, respectively.
The corresponding values for `Cc1ncsc1-c1ccc([C@H](C)NC(=O)[C@@H]2C[C@@H](O)CN2C(=O)[C@@H](NC(=O)CCCCCCC(=O)N2CCN(CC3(C)CCC(c4ccc(Cl)cc4)=C(CN4CCN(c5ccc(C(=O)NS(=O)(=O)c6ccc(N[C@H](CCN7CCCCC7CO)CSc7ccccc7)c([N+](=O)[O-])c6)cc5)CC4)C3)CC2)C(C)(C)C)cc1` (stereo partly drawn) [Compound 45, (2S,4R)-1-((2S)-2-(8-(4-((4′-chloro-6-((4-(4-(((4-(((2R)-4-(2-(hydroxymethyl)piperidin-1-yl)-1-(phenylthio)butan-2-yl)amino)-3-nitrophenyl)sulfonyl)carbamoyl)phenyl)piperazin-1-yl)methyl)-4-methyl-2,3,4,5-tetrahydro-[1,1′-biphenyl]-4-yl)methyl)piperazin-1-yl)-8-oxooctanamido)-3,3-dimethylbutanoyl)-4-hydroxy-N—((S)-1-(4-(4-methylthiazol-5-yl)phenyl)ethyl)pyrrolidine-2-carboxamide] are 100 to 500 nM and 20 to 100 nM.
